In patent US10287301B2 (Achillion Pharmaceuticals, Inc., priority 2015, dated 2019):
pIC50: −log10 of the molar value.

biological target: Human Factor D (Homo sapiens (Human), UniProt P00746); assay: Human Factor D Assay; assay type: biochemical; details: not given
In short: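 Factor D (from human serum) 80 nM final + cpd, 5 min RT, 50 mM Tris/1M NaCl pH 7.5; add Z-L-Lys-SBzl 100 μM and DTNB 100 μM final. IC50 by nonlinear fit of rates vs [cpd].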

Chain of Human Factor D (P00746 26-253): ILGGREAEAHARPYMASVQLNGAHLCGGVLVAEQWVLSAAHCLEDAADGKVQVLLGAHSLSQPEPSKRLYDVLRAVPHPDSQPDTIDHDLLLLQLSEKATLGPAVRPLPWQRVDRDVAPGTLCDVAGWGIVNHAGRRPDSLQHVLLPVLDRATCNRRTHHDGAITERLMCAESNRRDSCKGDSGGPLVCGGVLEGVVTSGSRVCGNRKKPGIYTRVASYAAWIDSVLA

| SMILES | pIC50 |
| --- | --- |
| NC(=O)c1nn(CC(=O)N2C[C@H](F)C[C@H]2C(=O)Nc2ncc(Br)cn2)c2ccc(-c3ccnnc3)cc12 [Compound 109, 1-(2-((2S,4R)-2-(5-bromopyrimidin-2-ylcarbamoyl)-4-fluoropyrrolidin-1-yl)-2-oxoethyl)-5-(pyridazin-4-yl)-1H-indazole-3-carboxamide] | 5.00 to 6.00 |

same assay, conditions: Human Factor D 80 nM, substrate Z-L-Lys-SBzl; read-out: IC50

| SMILES | pIC50 |
| --- | --- |
| CC(=O)c1cn(CC(=O)N2C[C@H](F)C[C@H]2C(=O)Nc2cccc(-c3ccccc3Cl)c2F)c2ccc(-c3cnc(O)nc3)cc12 [Compound 186, (2S,4R)-1-(2-(3-acetyl-5-(2-hydroxypyrimidin-5-yl)-1H-indol-1-yl)acetyl)-N-(2′-chloro-2-fluorobiphenyl-3-yl)-4-fluoropyrrolidine-2-carboxamide] | > 6.00 |
| CC(=O)c1cn(CC(=O)N2C[C@H](F)C[C@H]2C(=O)Nc2cccc(Br)n2)c2ccc(-c3cnc(C#N)nc3)cc12 [Compound 82, (2S,4R)-1-(2-(3-acetyl-5-(2-cyanopyrimidin-5-yl)-1H-indol-1-yl)acetyl)-N-(6-bromopyridin-2-yl)-4-fluoropyrrolidine-2-carboxamide] | > 6.00 |
| NC(=O)c1nn(CC(=O)N2C[C@H](F)C[C@H]2C(=O)Nc2cncc(Br)n2)c2ccc(-c3ccnnc3)cc12 [Compound 128, 1-(2-((2S,4R)-2-(6-bromopyrazin-2-ylcarbamoyl)-4-fluoropyrrolidin-1-yl)-2-oxoethyl)-5-(pyridazin-4-yl)-1H-indazole-3-carboxamide] | > 6.00 |
| NC(=O)c1nn(CC(=O)N2[C@@H]3C[C@@H]3C[C@H]2C(=O)Nc2cccc(-c3ccccc3Cl)c2F)c2ccc(-c3ncccn3)cc12 [Compound 7, 1-(2-((1R,3S,5R)-3-(2′-chloro-2-fluorobiphenyl-3-ylcarbamoyl)-2-azabicyclo[3.1.0]hexan-2-yl)-2-oxoethyl)-5-(pyrimidin-2-yl)-1H-indazole-3-carboxamide] | > 6.00 |
| COc1ncc(-c2ccc3c(c2)c(C(C)=O)cn3CC(=O)N2C[C@H](F)C[C@H]2C(=O)Nc2cccc(Br)n2)cn1 [Compound 21, (2S,4R)-1-(2-(3-acetyl-5-(2-methoxypyrimidin-5-yl)-1H-indol-1-yl)acetyl)-N-(6-bromopyridin-2-yl)-4-fluoropyrrolidine-2-carboxamide] | > 6.00 |
| CC(=O)c1cn(CC(=O)N2C[C@H](F)C[C@H]2C(=O)Nc2cccc(-c3ncccc3Cl)c2F)c2ccc(-c3cnc(C)nc3)cc12 [Compound 164, (2S,4R)-1-(2-(3-acetyl-5-(2-methylpyrimidin-5-yl)-1H-indol-1-yl)acetyl)-N-(3-(3-chloropyridin-2-yl)-2-fluorophenyl)-4-fluoropyrrolidine-2-carboxamide] | > 6.00 |
| NC(=O)c1nn(CC(=O)N2C[C@H](F)C[C@H]2C(=O)NCc2cc(F)cc(Cl)c2)c2ccc(-c3ccnnc3)cc12 [Compound 62, 1-(2-((2S,4R)-2-(3-chloro-5-fluorobenzyl-carbamoyl)-4-fluoropyrrolidin-1-yl)-2-oxoethyl)-5-(pyridazin-4-yl)-1H-indazole-3-carboxamide] | > 6.00 |

same assay, conditions: Human Factor D assay of Example 8; Table 2; read-out: IC50

| SMILES | pIC50 |
| --- | --- |
| CC(=O)c1ccc(Cl)c(-c2cccc(NC(=O)[C@@H]3C[C@@H](F)CN3C(=O)Cn3nc(C(C)=O)c4cc(-c5cnc(C)nc5)ccc43)c2F)c1 [Compound 192, (2S,4R)-N-(5′-acetyl-2′-chloro-2-fluorobiphenyl-3-yl)-1-(2-(3-acetyl-5-(2-methylpyrimidin-5-yl)-1H-indazol-1-yl)acetyl)-4-fluoropyrrolidine-2-carboxamide] | > 6.00 |
| NC(=O)c1nn(CC(=O)N2C[C@H](F)C[C@H]2C(=O)Nc2cccnc2O)c2ccc(-c3ccnnc3)cc12 [Compound 196, 1-(2-((2S,4R)-4-fluoro-2-(2-hydroxypyridin-3-ylcarbamoyl)pyrrolidin-1-yl)-2-oxoethyl)-5-(pyridazin-4-yl)-1H-indazole-3-carboxamide] | < 5.00 |
| CC(=O)c1cn(CC(=O)N2C[C@H](F)C[C@H]2C(=O)Nc2cccc(-c3ccccc3Cl)c2F)c2cc(O)c(-c3cnc(C)nc3)cc12 [Compound 320, (4R)-1-(2-(3-Acetyl-6-hydroxy-5-(2-methylpyrimidin-5-yl)-1H-indol-1-yl)acetyl)-N-(2′-chloro-2-fluoro-[1,1′-biphenyl]-3-yl)-4-fluoropyrrolidine-2-carboxamide] | > 6.00 |

same assay, conditions: Human Factor D, Table 3; read-out: IC50

| SMILES | pIC50 |
| --- | --- |
| CC(=O)c1nn(CC(=O)N2C[C@@](F)(CF)CC2C(=O)Nc2nc(Br)ccc2C)c2ccc(-c3cnc(N)nc3)cc12 (stereo in doubt) [Compound 579, (2S,4R)-1-(2-(3-acetyl-5-(2-aminopyrimidin-5-yl)-1H-indazol-1-yl)acetyl)-N-(6-bromo-3-methylpyridin-2-yl)-4-fluoro-4-(fluoromethyl) pyrrolidine-2-carboxamide] | > 6.00 |
| CC(=O)c1nn(CC(=O)N2CC[C@H]2C(=O)Nc2cccc(C)n2)c2ccc(-c3ccc4ccccc4c3)cc12 [Compound 587, (S)-1-(2-(3-Acetyl-5-(naphthalen-2-yl)-1H-indazol-1-yl)acetyl)-N-(6-methylpyridin-2-yl)azetidine-2-carboxamide] | < 5.00 |
| CC(=O)c1nn(CC(=O)N2C[C@H](F)C[C@H]2C(=O)NC[C@@H]2CCN(C)C2)c2ccc(-c3cnc(C)nc3)cc12 [Compound 568, (2S,4R)-1-(2-(3-Acetyl-5-(2-methylpyrimidin-5-yl)-1H-indazol-1-yl)acetyl)-4-fluoro-N—(((S)-1-methylpyrrolidin-3-yl)methyl)pyrrolidine-2-carboxamide] | < 5.00 |
| CC(=O)c1nn(CC(=O)N2CCC[C@H]2C(=O)Nc2cccc(C)n2)c2ccc(-c3ccc4ccccc4c3)cc12 [Compound 585, (S)-1-(2-(3-Acetyl-5-(naphthalen-2-yl)-1H-indazol-1-yl)acetyl)-N-(6-methylpyridin-2-yl)pyrrolidine-2-carboxamide] | < 5.00 |
| CC(=O)c1nn(CC(=O)N2C[C@H](F)C[C@H]2C(=O)Nc2cccc(Br)n2)c2cc(C(=O)N(C)C)c(-c3cnc(C)nc3)cc12 [Compound 722, 3-Acetyl-1-(2-((2S,4R)-2-((6-bromopyridin-2-yl)carbamoyl)-4-fluoropyrrolidin-1-yl)-2-oxoethyl)-N,N-dimethyl-5-(2-methylpyrimidin-5-yl)-1H-indazole-6-carboxamide] | > 6.00 |
| CC(=O)c1nn(CC(=O)N2C[C@H](F)C[C@H]2C(=O)Nc2cccc(Br)n2)c2ccc(-c3cnc(C)[n+]([O-])c3)cc12 [Compound 742, 5-(3-Acetyl-1-(2-((2S,4R)-2-((6-bromopyridin-2-yl)carbamoyl)-4-fluoropyrrolidin-1-yl)-2-oxoethyl)-1H-indazol-5-yl)-2-methylpyrimidine 1-oxide] | > 6.00 |
| CC(=O)c1nn(CC(=O)N2C[C@H](F)C[C@H]2C(=O)NC[C@H]2CCN(C)C2)c2ccc(-c3cnc(C)nc3)cc12 [Compound 569, (2S,4R)-1-(2-(3-acetyl-5-(2-methylpyrimidin-5-yl)-1H-indazol-1-yl)acetyl)-4-fluoro-N—(((R)-1-methylpyrrolidin-3-yl)methyl)pyrrolidine-2-carboxamide] | < 5.00 |
| CC(=O)c1nn(CC(=O)N2[C@@H]3C[C@@H]3C[C@H]2C(=O)Nc2nc(Br)ccc2C2CC2)c2ccc(-c3cnc(C)nc3)cc12 [Compound 603, (1R,3S,5R)-2-(2-(3-Acetyl-5-(2-methylpyrimidin-5-yl)-1H-indazol-1-yl)acetyl)-N-(6-bromo-3-cyclopropyl-pyridin-2-yl)-2-azabicyclo[3.1.0]hexane-3-carboxamide] | > 6.00 |
| CC(=O)c1nn(CC(=O)N2[C@@H]3C[C@@H]3C[C@H]2C(=O)NCC(F)=C(C)C2CC2)c2ccc(-c3cnc(C)nc3)cc12 [Compound 551, (1R,3S,5R)-2-(2-(3-Acetyl-5-(2-methylpyrimidin-5-yl)-1H-indazol-1-yl)acetyl)-N-(3-cyclopropyl-2-fluorobut-2-en-1-yl)-2-azabicyclo[3.1.0]hexane-3-carboxamide] | > 6.00 |
| CC(=O)c1nn(CC(=O)N2[C@H](C(=O)Nc3nc(Br)ccc3C)C[C@@]3(C)C[C@@H]23)c2c(C)cc(-c3cnc(C)nc3)cc12 [Compound 636, (1R,3S,5R)-2-(2-(3-Acetyl-7-methyl-5-(2-methylpyrimidin-5-yl)-1H-indazol-1-yl)acetyl)-N-(6-bromo-3-methylpyridin-2-yl)-5-methyl-2-azabicyclo[3.1.0]hexane-3-carboxamide] | > 6.00 |

same assay, conditions: Table 3; Human Factor D 80 nM, substrate Z-L-Lys-SBzl; read-out: IC50 (Stars)

| SMILES | pIC50 |
| --- | --- |
| CC(=O)c1nn(CC(=O)N2[C@@H]3C[C@@H]3C[C@H]2C(=O)NC/C(F)=C(/C)c2cccc(Cl)c2)c2ccc(-c3cnc(C)nc3)cc12 [Compound 506, (1R,3S,5R)-2-(2-(3-Acetyl-5-(2-methylpyrimidin-5-yl)-1H-indazol-1-yl)acetyl)-N-((E)-3-(3-chlorophenyl)-2-fluorobut-2-en-1-yl)-2-azabicyclo[3.1.0]hexane-3-carboxamide] | > 6.00 |
| CC(=O)c1nn(CC(=O)N2C[C@H](F)C[C@H]2C(=O)Nc2cncc(Cl)n2)c2ccc(-c3cnc(C)nc3)cc12 [Compound 368, (2S,4R)-1-(2-(3-Acetyl-5-(2-methylpyrimidin-5-yl)-1H-indazol-1-yl)acetyl)-N-(6-chloropyrazin-2-yl)-4-fluoropyrrolidine-2-carboxamide] | > 6.00 |
| COC[C@@]12C[C@@H]1N(C(=O)Cn1nc(C(C)=O)c3cc(-c4cnc(C)nc4)ccc31)[C@H](C(=O)Nc1cccc(Br)n1)C2 [Compound 417, (1S,3S,5R)-2-(2-(3-Acetyl-5-(2-methylpyrimidin-5-yl)-1H-indazol-1-yl)acetyl)-N-(6-bromopyridin-2-yl)-5-(methoxymethyl)-2-azabicyclo[3.1.0]hexane-3-carboxamide] | > 6.00 |
| CC(=O)c1nn(CC(=O)N2C[C@H](F)C[C@H]2C(=O)Nc2cccc(Br)n2)c2ccc(-c3cnc(NC4CC4)nc3)cc12 [Compound 367, (2S,4R)-1-(2-(3-Acetyl-5-(2-(cyclopropylamino)pyrimidin-5-yl)-1H-indazol-1-yl)acetyl)-N-(6-bromopyridin-2-yl)-4-fluoropyrrolidine-2-carboxamide] | > 6.00 |
